In this experiment the target is T1, BTK C481S (Homo sapiens, UniProt Q06187, C481S).
T1 construct: His-TEV-hsBTK(328-659)(C481S) from the Merck Serono Protein Purification Laboratory; His (N); TEV (protease cleavage site) (N)
Description: Assay B: Microfluidic Off-Chip Mobility Shift Assay against BTK C481S enzyme. It is filed as biochemical. Conditions: His-TEV-hsBTK(328-659)(C481S), 90 min, 25° C. From the text: Assay B: Microfluidic Off-Chip Mobility Shift Assay Protocol for Potency Assessment Against BTK C481S Enzyme The protocol below describes a microfluidic, off-chip mobility shift kinase assay to measure inherent potency of compounds against BTK C481S enzyme. The mechanics of the assay platform are described by the vendor (PerkinElmer, Hopkinton, Mass.) on their website at the following URL: […].com. Briefly, 2.5× stocks of His-TEV-hsBTK(328-659)(C481S) from the Merck Serono Protein Purification Laboratory in Darmstadt, Germany (PCS, […]/234), 1.6×ATP and appropriate […] peptide substrate (FITC-AHA-[…]-NH2; Tufts University Core Facility custom synthesis) were prepared in kinase reaction buffer consisting of 25 mM MgCl2, 0.015% Brij-35 (30%), 100 mM HEPES, pH 7.5, and 10 mM DTT. […] Terminated reactions were monitored at -2 PSI, -3000 V/-700 Volts in a LabChip 3000 plate reader from Caliper Life Sciences, a PerkinElmer Company (Hopkinton, Mass.), and the activity was quantified by laser-induced fluorescence measuring the charge/mass difference between substrate and product resulting from peptide phosphorylation. IC50 and efficacy were determined by plotting log [Inhibitor] vs. % Activity in GeneData Screener (Basel, Switzerland).

T1 sequence (Q06187 328-659 C481S): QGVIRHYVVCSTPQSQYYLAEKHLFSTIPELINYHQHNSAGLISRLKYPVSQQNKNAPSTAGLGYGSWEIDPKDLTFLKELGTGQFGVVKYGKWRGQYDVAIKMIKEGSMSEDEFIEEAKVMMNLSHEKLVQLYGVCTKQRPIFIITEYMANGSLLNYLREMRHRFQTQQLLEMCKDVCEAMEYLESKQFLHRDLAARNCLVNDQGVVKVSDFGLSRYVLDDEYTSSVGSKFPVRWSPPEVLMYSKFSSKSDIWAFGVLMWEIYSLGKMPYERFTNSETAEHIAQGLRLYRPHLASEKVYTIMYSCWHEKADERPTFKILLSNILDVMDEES

One may read the IC50 as the concentration at which inhibition is half-maximal. As to `CC(C)(C)c1noc(C(=O)NCc2ccc(-c3ccnc4[nH]c(-c5cnn(C6COC6)c5)nc34)cc2F)n1` [Example 128], the IC50 is under 100 nM.

The values are drawn from patent US10253023B2, “Heteroaryl compounds as BTK inhibitors and uses thereof” (Merck Patent GmbH, priority 2014, dated 2019).
